Measurements: patent US20230037453A1, “PREPARATION FOR USE AS VASORELAXANT” (Evonik Operations GmbH, priority 2020, published 2023)

test system: mice mesenteric arteries; assay: Vascular reactivity: vasorelaxation of phenylephrine-precontracted mesenteric arteries (wire or pressure myograph); format: cell-based; conditions: phenylephrine-precontracted mice mesenteric arteries, increasing doses 5 - 300 µg/mL
Method: Second-order branches of the mesenteric arterial tree were removed from mice to perform vascular studies. […] First, an analysis of vascular reactivity curves was performed. In particular, vasoconstriction was assessed with 80 mmol/L of KCI or with increasing doses of phenylephrine (from 10^-9 M to 10^-6 M) in control conditions. Endothelium-dependent and -independent relaxations were assessed by measuring the dilatory responses of mesenteric arteries to cumulative concentrations of acetylcholine (from 10^-9 M to 10^-6 M) or nitroglycerine (from 10^-9 M to 10^-6 M) respectively, in vessels precontracted with phenylephrine at the dose necessary to obtain a similar level of precontraction in each ring (80% of initial KCI-evoked contraction). Caution was taken to avoid endothelial damage; functional integrity was reflected by the response to acetylcholine (from 10^-9 M to 10^-6 M). […]
F) Comparison of vasorelaxant effect of AvailOm®, ω 3-FA, ω 3-EE or L-Lysine. Statistical analyses were performed using two-way ANOVA followed Bonferroni post-hoc test. *p<0.05; **p<0.01, ***p<0.001.

Row | Compound | direct vasorelaxant action (dose-response)
1 | NCCCC[C@H](N)C(=O)O [L-Lysine] | did not evoke any vasorelaxant effect

same assay, conditions: single anthocyanins 1 - 100 µg/mL, dose-response curves

Row | Compound | vasorelaxation reached
2 | C[C@@H]1O[C@@H](OC[C@H]2O[C@@H](Oc3cc4c(O)cc(O)cc4[o+]c3-c3ccc(O)c(O)c3)[C@H](O)[C@@H](O)[C@@H]2O)[C@H](O)[C@H](O)[C@H]1O [C3-rut, Cyanidin-3-rutinoside] | ~36,5%
3 | OC[C@H]1O[C@@H](Oc2cc3c(O)cc(O)cc3[o+]c2-c2cc(O)c(O)c(O)c2)[C@H](O)[C@@H](O)[C@H]1O [DP3-gal, Delphinidin-3-galactoside] | about 32,5%

same assay, conditions: single anthocyanins 1 - 100 µg/mL, phenylephrine-precontracted mice mesenteric arteries

Row | Compound | direct vascular action: dose-dependent vasorelaxation compared with Healthberry 865
4 | OC[C@H]1O[C@@H](Oc2cc3c(O)cc(O)cc3[o+]c2-c2ccc(O)c(O)c2)[C@H](O)[C@@H](O)[C@H]1O [C3-gal, Cyanidin-3-galactoside] | able to reproduce the direct vasorelaxant effect of Healthberry 865®
5 | OC[C@H]1O[C@@H](Oc2cc3c(O)cc(O)cc3[o+]c2-c2ccc(O)c(O)c2)[C@H](O)[C@@H](O)[C@@H]1O [C3-glu, Cyanidin-3-glucoside] | none of the single anthocyanins was able to evoke a dose-dependent vasorelaxation comparable to that observed after Healthberry 865® administration
6 | C[C@@H]1O[C@@H](OC[C@H]2O[C@@H](Oc3cc4c(O)cc(O)cc4[o+]c3-c3ccc(O)c(O)c3)[C@H](O)[C@@H](O)[C@@H]2O)[C@H](O)[C@H](O)[C@H]1O [C3-rut, Cyanidin-3-rutinoside] | none of the single anthocyanins was able to evoke a dose-dependent vasorelaxation comparable to that observed after Healthberry 865® administration
7 | Oc1cc(O)c2cc(O[C@H]3OC[C@H](O)[C@H](O)[C@H]3O)c(-c3cc(O)c(O)c(O)c3)[o+]c2c1 [DP3-ara, Delphinidin-3-arabinoside] | none of the single anthocyanins was able to evoke a dose-dependent vasorelaxation comparable to that observed after Healthberry 865® administration
8 | OC[C@H]1O[C@@H](Oc2cc3c(O)cc(O)cc3[o+]c2-c2cc(O)c(O)c(O)c2)[C@H](O)[C@@H](O)[C@H]1O [DP3-gal, Delphinidin-3-galactoside] | none of the single anthocyanins was able to evoke a dose-dependent vasorelaxation comparable to that observed after Healthberry 865® administration
9 | OC[C@H]1O[C@@H](Oc2cc3c(O)cc(O)cc3[o+]c2-c2cc(O)c(O)c(O)c2)[C@H](O)[C@@H](O)[C@@H]1O [DP3-glu, Delphinidin-3-glucoside] | none of the single anthocyanins was able to evoke a dose-dependent vasorelaxation comparable to that observed after Healthberry 865® administration
10 | COc1cc(-c2[o+]c3cc(O)cc(O)c3cc2O[C@@H]2O[C@H](CO)[C@H](O)[C@H](O)[C@H]2O)cc(OC)c1O [MAL3-gal, Malvidin-3-galactoside] | none of the single anthocyanins was able to evoke a dose-dependent vasorelaxation comparable to that observed after Healthberry 865® administration
11 | COc1cc(-c2[o+]c3cc(O)cc(O)c3cc2O[C@@H]2O[C@H](CO)[C@@H](O)[C@H](O)[C@H]2O)cc(OC)c1O [MAL3-glu, Malvidin-3-glucoside] | none of the single anthocyanins was able to evoke a dose-dependent vasorelaxation comparable to that observed after Healthberry 865® administration
12 | COc1cc(-c2[o+]c3cc(O)cc(O)c3cc2O[C@@H]2O[C@H](CO)[C@@H](O)[C@H](O)[C@H]2O)cc(O)c1O [PT3-glu, Petunidin-3-glucoside] | none of the single anthocyanins was able to evoke a dose-dependent vasorelaxation comparable to that observed after Healthberry 865® administration
13 | Peonidin-3-galactoside [PEO3-gal] | none of the single anthocyanins was able to evoke a dose-dependent vasorelaxation comparable to that observed after Healthberry 865® administration
